Results from patent publication US11866429B2, “Heteroaryl-biphenyl amines for the treatment of PD-L1 diseases” (CHEMOCENTRYX, INC., priority 2019, dated 2024).

Target: human PD-L1 (Homo sapiens (Human), UniProt Q9NZQ7)
Test: Enzyme-Linked Immunosorbent Assay (ELISA), PD-1/PD-L1 binding
Conditions: plates coated with human PD-L1; Human PD-1 and biotin added; absorbance at 450 nm
Method: 96 Well plates were coated with 1 μg/mL of human PD-L1 (obtained from R&D) in PBS overnight at 4° C. The wells were then blocked with 2% BSA in PBS (W/V) with 0.05% TWEEN-20 for 1 hour at 37° C. The plates were washed 3 times with PBS/0.05% TWEEN-20 and the compounds were serial diluted (1:5) in dilution medium and added to the ELISA plates. Human PD-1 and biotin 0.3 μg/mL (ACRO Biosystems) were added and incubated for 1 hour at 37° C. then washed 3 times with PBS/0.05% TWEEN-20. A second block was performed with 2% BSA in PBS (W/V)/0.05% TWEEN-20 for 10 min at 37° C. and the plates were washed 3 times with PBS/0.05% TWEEN-20. Streptavidin-HRP was added for 1 hour at 37° C. then the plates were washed 3 times with PBS/0.05% TWEEN-20. TMB substrate was added and reacted for 20 min at 37° C. A stop solution (2 N aqueous […]) was added. The absorbance was read at 450 nm using a micro-plate spectrophotometer.

Chain of human PD-L1 (Q9NZQ7 19-239): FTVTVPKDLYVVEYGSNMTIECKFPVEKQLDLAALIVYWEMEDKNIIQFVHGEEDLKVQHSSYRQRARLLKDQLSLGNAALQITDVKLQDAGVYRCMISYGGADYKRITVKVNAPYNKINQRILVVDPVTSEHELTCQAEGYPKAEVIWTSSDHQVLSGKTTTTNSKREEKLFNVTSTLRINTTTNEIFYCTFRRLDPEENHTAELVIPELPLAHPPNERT

IC50, < 10 nM:
COc1nc(-c2cccc(-c3cccc(Nc4nccc5nccnc45)c3C)c2Cl)ccc1CN1CC(C(=O)O)C1 [Compound 1.076]
COc1nc(-c2cccc(-c3cccc(Nc4nccc5nccnc45)c3C)c2Cl)ccc1CN1CC(O)C1 [Compound 1.077]
COc1nc(-c2cccc(-c3cccc(Nc4nccc5nccnc45)c3C)c2Cl)ccc1CNC[C@@H]1CCC(=O)N1 [Compound 1.078]
COc1nc(-c2cccc(-c3cccc(Nc4nccc5nccnc45)c3Cl)c2Cl)ccc1CN1CC(O)C1 [Compound 1.079]
CCc1nc(-c2cccc(-c3cccc(Nc4nccc5nccnc45)c3Cl)c2Cl)cnc1CNC[C@@H]1CCC(=O)N1 [Compound 1.080]
COc1nc(-c2cccc(-c3cccc(Nc4nccc5nccnc45)c3Cl)c2Cl)ccc1CN[C@@H]1CNC(=O)C1 [Compound 1.081]
COc1nc(-c2cccc(-c3cccc(Nc4nccc5nccnc45)c3Cl)c2Cl)ccc1CN1CC(C(=O)O)C1 [Compound 1.082]
COc1nc(-c2cccc(-c3cccc(Nc4nccc5nccnc45)c3Cl)c2Cl)ccc1CN1CC(C)(C(=O)O)C1 [Compound 1.083]
COc1nc(-c2cccc(-c3cccc(Nc4nccc5nccnc45)c3Cl)c2Cl)ccc1CNC[C@@H]1CCC(=O)N1 [Compound 1.084]
